Here are results for six molecules from paper PMC7460559 (International Journal of Molecular Sciences, 2020).

The test system of data set [1] is PC/SM (2:1, w/w) small unilamellar vesicle (SUV) liposomes. Nature of the data set: Binding assay with SUV liposomes by CD. The note with it: 50 μM peptide, 300 μM SUVs, 10 mM HEPES buffer (pH 7.4), 25 °C, n = 3. As for the experimental part: (§1) SUVs were prepared by drying of phosphatidylethanolamine (PE)/phosphatidyl glycerol (PG) (7:3, w/w) or phosphatidylcholine (PC)/sphingomyelin (SM) (2:1, w/w) under nitrogen, suspension by vortex mixing in 10 mM HEPES buffer (pH 7.4), and sonication. To prepare the SUVs, the lipid diffusions were sonicated in a bath-type sonicator for 20 min. Next, the suspensions of preparation vesicles were extruded 10 times through polycarbonate membranes ([…] pores). The concentration of SUV liposomes was determined using a standard phosphate assay. Circular dichroism (CD) spectra were recorded at 25 °C on a Jasco 810 spectropolarimeter. The peptide (50 μM) solution was added to 400 μL of 10 mM HEPES buffer or to 300 μM SUVs. At least three scans were acquired at 250 to 190 nm.

For data set [2], the system named is PE/PG (7:3, w/w) small unilamellar vesicle (SUV) liposomes. Nature of the data set: Binding assay with SUV liposomes by CD. The note with it: 50 μM peptide, 300 μM SUVs, 10 mM HEPES buffer (pH 7.4), 25 °C, n = 3. As for the experimental part:
as §1

A short description of data set [3]: Reverse-phase HPLC retention time (hydrophobicity). It is filed as physicochemical. The note with it: mean retention time, Jupiter proteo C18 column (250 × 4.6 mm, 90 Å, 4 μm), 280 nm, used by the paper as measure of hydrophobicity. As for the experimental part: Peptides were synthesized by using a 9-fluorenylmethoxycarbonyl (Fmoc) solid-phase method on Rink amide 4-methyl benzhydrylamine resin (Novabiochem, Darmstadt, Germany) (0.55 mmol/g) using a Liberty microwave peptide synthesizer (CEM, Matthews, NC, USA). To generate N-terminal fluorescently-labeled peptides, resin-bound peptides were treated with 20% (v/v) piperidine in dimethylformamide (DMF) to remove the Fmoc protection groups from the N-terminal amino acids. Rhodamine-SE dye was incubated with resin-bound peptide in DMF (3–4 eq.) containing 5% (v/v) diisopropylethylamine, and gently mixing for 24 h at room temperature in the dark. The resin was washed with dichloromethane (DCM). The peptides were cleaved from the corresponding resins, precipitated with ether, and extracted. The crude peptides were purified by reverse-phase preparative high-performance liquid chromatography (HPLC) on a Jupiter C18 column (250 × 21.2 mm, […], 300 Å; Phenomenex, Torrance, CA, USA) using a 0–60% acetonitrile gradient in water with 0.05% trifluoroacetic acid. The purity of the extracted peptide was then determined by analytical reversed-phase HPLC (wavelength of 280 nm) using a Jupiter proteo C18 column (250 × 4.6 mm, 90 Å, 4 μm). The molecular masses of the peptides were confirmed on a matrix-assisted laser desorption ionization mass spectrometer (Kratos Analytical, Kyoto, Japan).

For data set [4], the system named is S. aureus ATCC 25923. Nature of the data set: Resistance development assay. It is filed as cell-based, Staphylococcus aureus. The note with it: S. aureus ATCC 25923, 12 passages from 1/2 MIC well, DMEM supplemented with 10% fetal bovine serum, MICs in duplicate.
Protocol: Daily MICs were determined over 15 days for each agent using cells collected from the well determined as having half the MIC (1/2 MIC well). Briefly, cells from the 1/2 MIC well from the preceding day’s assay plate were resuspended and the OD600 was measured. The suspensions were then adjusted to achieve a bacterial concentration of 5 × 10^5 cfu/mL in DMEM supplemented with 10% fetal bovine serum and then mixed with each agent at the appropriate concentration. All MICs were determined in duplicate [26].
Data set [5] deals with sheep red blood cells (sheep RBCs). Nature of the data set: Hemolysis. It is filed as cell-based. The conditions noted are these: data overlapped with those of HPA3NT3-A2. As for the experimental part:
Fresh samples of sheep blood defibrinated cells (MBcell, Seoul, Korea) were centrifuged at 800× g and washed with phosphate-buffered saline (PBS) until the supernatant was clear. Serial dilutions (two-fold) of peptide prepared in PBS were plated, and sheep red blood cells (sheep RBCs) were added to a final concentration of 8% (v/v) in a 96-well plate. The samples were incubated for 1 h at 37 °C with gentle agitation and then centrifuged at 800× g for 10 min. The absorbance of the supernatant was measured at 414 nm; each measurement was performed in triplicate and the percentage hemolysis was calculated using Equation (1):% hemolysis = [(Abs414 in the peptide solution − Abs414 in PBS)/(Abs414 in 0.1% Triton-X100 − Abs414 in PBS)] × 100(1) where 100% hemolysis was defined as the absorbance of sheep RBCs containing 1% Triton X-100 and zero hemolysis was the value measured for sheep RBCs alone in PBS [10].

For data set [6], the system named is P. aeruginosa 4007. Kind of data set: MIC assay, drug-resistant strain. It is filed as cell-based. The conditions noted are these: Pseudomonas aeruginosa; P. aeruginosa 4007, resistant isolate from otitis media patients; peptides in DMEM supplemented with 10% FBS. The source says:
(§2) Escherichia coli (ATCC 25922) and S. aureus (ATCC 25923) were obtained from American Type Culture Collection (Manassas, VA, USA). Escherichia coli CCARM 1229, E. coli CCARM 1238, S. aureus CCARM 3089, S. aureus 3114, Salmonella typhimurium CCARM 8009, and S. typhimurium CCARM 8013 were obtained from the culture collection of antibiotic-resistant microbes at Seoul Women’s University, Republic of Korea. Pseudomonas aeruginosa 3547 and P. aeruginosa 4007 were resistant strains isolated from hospital patients with otitis media at Chonnam National University, Republic of Korea. The rifampin-resistant S. aureus PBEL 1 and vancomycin-resistant S. aureus PBEL 2 strains used in this study were generated from wild-type S. aureus (ATCC 25923).
(§3) Bacterial cells were incubated within culture media at 37 °C. The peptide antimicrobial activity was determined by the minimal inhibition concentration (MIC) assay. […] The samples were incubated for 18–24 h at 37 °C. After incubation, the minimum inhibitory concentrations (MICs) of the peptides were determined by measuring the absorbance at an optical density of 600 nm (OD600).

Data set [7] concerns S. aureus CCARM 3114. Nature of the data set: MIC assay, drug-resistant strain. It is filed as cell-based. The conditions noted are these: Staphylococcus aureus, CCARM3114, peptides in DMEM supplemented with 10% FBS.
Excerpt: as §2, §3

Data set [8] deals with S. typhimurium CCARM 8013. Nature of the data set: MIC assay, drug-resistant strain. It is filed as cell-based. The conditions noted are these: Salmonella enterica, peptides in DMEM supplemented with 10% FBS.
Excerpt: as §2, §3

In data set [9] the test system is S. typhimurium CCARM 8009. Nature of the data set: MIC assay, drug-resistant strain. Type of data set: cell-based. The note with it: Salmonella enterica, peptides in DMEM supplemented with 10% FBS.
Excerpt: as §2, §3

Data set [10] has as its system S. aureus PBEL 1. Nature of the data set: MIC assay, drug-resistant strain. The conditions noted are these: Staphylococcus aureus, PBEL1; S. aureus PBEL 1, rifampin-resistant (induced); peptides in DMEM supplemented with 10% FBS. It is filed as cell-based.
Excerpt: as §2, §3

The subject of data set [11] is P. aeruginosa 3547. Kind of data set: MIC assay, drug-resistant strain. The note with it: Pseudomonas aeruginosa; P. aeruginosa 3547, resistant isolate from otitis media patients; peptides in DMEM supplemented with 10% FBS. Type of data set: cell-based.
Excerpt: as §2, §3

Data set [12] deals with S. aureus CCARM 3089. Nature of the data set: MIC assay, drug-resistant strain. It is filed as cell-based. The note with it: Staphylococcus aureus, CCARM3089, peptides in DMEM supplemented with 10% FBS.
Excerpt: as §2, §3

Data set [13] deals with S. aureus PBEL 2. Nature of the data set: MIC assay, drug-resistant strain. Type of data set: cell-based. The conditions noted are these: Staphylococcus aureus, PBEL2; S. aureus PBEL 2, vancomycin-resistant (induced); peptides in DMEM supplemented with 10% FBS.
Excerpt: as §2, §3

The subject of data set [14] is E. coli CCARM 1238. Nature of the data set: MIC assay, drug-resistant strain. It is filed as cell-based. The note with it: Escherichia coli, CCARM1238, peptides assayed in DMEM supplemented with 10% FBS.
Excerpt: as §2, §3

The test system of data set [15] is E. coli CCARM 1229. Kind of data set: MIC assay, drug-resistant strain. Type of data set: cell-based. The note with it: Escherichia coli, CCARM1229, peptides assayed in DMEM supplemented with 10% FBS.
Excerpt: as §2, §3

Data set [16] has as its system sheep red blood cells (sheep RBCs). The conditions noted are these: at 250 μM; cited from earlier work. As to the method:
(§4) Previously, we determined the properties of HPA3NT3 as an antimicrobial peptide. This peptide has an amphipathic helical structure, strong antimicrobial activity, and cytotoxic ability at 250 μM (sheep RBCs, 68.4%; HaCaT cells, 85.1%). This peptide was designed to have low cytotoxicity at higher concentrations and was generated by substituting phenylalanine with alanine and lysine (F1A, F8A, and N13K) to enhance its antimicrobial activity by increasing the net positive charge.

The test system of data set [17] is HaCa T (human keratinocyte) cells. The note with it: at 250 μM; cited from earlier work. As to the method: as §4

Values after ≈ are worked out from the molar mass of the structure shown. Residues, ends and D or L forms follow the SMILES beside them. No end group written: not given here.

As to `CC[C@H](C)[C@H](NC(=O)[C@@H](CCCCN)NC(=O)[C@@H](CCCCN)NC(=O)[C@H](C)NC(=O)[C@H](CC(C)C)NC(=O)[C@@H](CCCCN)NC(=O)[C@@H](CCCCN)NC(=O)[C@H](CC(C)C)NC(=O)[C@H](CCCNC(=N)N)NC(=O)[C@@H](CCCCN)NC(=O)[C@H](C)N)C(=O)N[C@@H](Cc1c[nH]c2ccccc12)C(=O)N[C@H](CCCCN)C(=O)N[C@@H](Cc1c[nH]c2ccccc12)C(=O)N[C@H](CCCCN)C(N)=O` [HPA3NT3-A2D] (HELM PEPTIDE1{A.[dK].R.L.[dK].[dK].L.A.[dK].[dK].I.W.[dK].W.[dK].[am]}$$$$V2.0; N-terminus assumed), the “interaction with PC/SM liposome (CD)” value in data set [1] is reported as “low levels of α-helical structures”. Also, the “interaction with PE/PG liposome (CD)” value in data set [2] is recorded as “low levels of α-helical structures”. For the same molecule, the “Retention Time” value in data set [3] was determined as 11.97 min. Also, the “increase in MIC (resistance development)” value in data set [4] is listed as “no change in the MIC”. For the same molecule, the “hemolysis against sheep RBCs (in words)” value in [5] was “non-hemolysis”.

Consider `CC1(C)S[C@@H]2[C@H](NC(=O)[C@H](N)c3ccccc3)C(=O)N2[C@H]1C(=O)O` [Amp, ampicillin], for which the minimal inhibitory concentration (MIC) in data set [6], in [7], in data set [8], in data set [9], in data set [10] and in [11] was greater than 512 µM in each case. Besides, the MIC in data set [12] and in data set [13] was greater than 512 µM in each case.

As to `CC[C@H]1OC(=O)[C@H](C)[C@@H](O[C@H]2C[C@@](C)(OC)[C@@H](O)[C@H](C)O2)[C@H](C)[C@@H](O[C@@H]2O[C@H](C)C[C@H](N(C)C)[C@H]2O)[C@](C)(O)C[C@@H](C)C(=O)[C@H](C)[C@@H](O)[C@]1(C)O` [Ery, erythromycin], the minimal inhibitory concentration (MIC) in data set [14] was 256 µM (≈ 188 µg/mL); in data set [6], greater than 512 µM; in [7] it was greater than 512 µM; in [8] it was 128 µM (≈ 93.9 µg/mL); in [9], 256 µM (≈ 188 µg/mL); in data set [10] it was greater than 512 µM. Besides, the MIC was greater than 512 µM in [11], 256 µM (≈ 188 µg/mL) in data set [15], greater than 512 µM in data set [12] and greater than 512 µM in [13].

Regarding `CO[C@H]1/C=C/O[C@@]2(C)Oc3c(C)c(O)c4c(O)c(c(/C=N/N5CCN(C)CC5)c(O)c4c3C2=O)NC(=O)/C(C)=C\C=C\[C@H](C)[C@H](O)[C@@H](C)[C@@H](O)[C@@H](C)[C@H](OC(C)=O)[C@@H]1C` [rifampin], the “increase in MIC (resistance development)” value in data set [4] is given as 8192 fold.

Take `O=C(O)c1cn(C2CC2)c2cc(N3CCNCC3)c(F)cc2c1=O` [Cip, ciprofloxacin]: the MIC in data set [6], in data set [7], in data set [10], in data set [11], in data set [12] and in data set [13] was greater than 512 µM throughout.

Consider FKRLKKLFKKIWNWK-NH2 [HPA3NT3], for which, in data set [1], the “interaction with PC/SM liposome (CD)” value was “strongest interaction and α-helical structure”. Moreover, in data set [2], the “interaction with PE/PG liposome (CD)” value is “strongest interaction and α-helical structure”. In data set [3], the “Retention Time” value is 20.94 min. In data set [16], the “hemolytic activity against sheep RBCs” value is on record as 68.4%. The “toxicity against HaCaT cells” value in data set [17] is listed as 85.1%.

A word on the MIC: it is the smallest concentration in the dilution series that meets the test's criterion for growth inhibition. Low values mean inhibition by little substance, high ones a need for much substance.
